# Numbered stars: 1 amine (or outer) side, 2 acyl side, 3 side chain; on linkers, the order of the positions; unused ones are H or OH. Bridge positions count the residues as written; N and C are the ends. Square brackets hold non-standard residues; d marks the D form. Side chains are listed from the residue outwards. Peptide text beside a SMILES is read from it. * marks the point of attachment. TtdsdLys(DOTA)NH2 = NC(=O)[C@@H](CCCCNC(=O)CN1CCN(CC(=O)O)CCN(CC(=O)O)CCN(CC(=O)O)CC1)NC(=O)CCC(=O)NCCCOCCOCCOCCCN*; X7 = O=C(O)CN1CCN(CC(=O)O)CCN(CC(=O)NC2CCN(CC(=O)*)CC2)CCN(CC(=O)O)CC1; DOTA = O=C(O)CN1CCN(CC(=O)O)CCN(CC(=O)*)CCN(CC(=O)O)CC1; Phe(3-Cl) = N[C@@H](Cc1cccc(Cl)c1)C(=O)O; Phe(4-CN) = N#Cc1ccc(C[C@H](N)C(=O)O)cc1; Phe(4-Cl) = N[C@@H](Cc1ccc(Cl)cc1)C(=O)O; X1 = O=C(CC1CCN([*:1])CC1)[*:2]; Cit = NC(=O)NCCC[C@H](N)C(=O)O; Tle = CC(C)(C)[C@H](N)C(=O)O; Nle = CCCC[C@H](N)C(=O)O; Hexanoyl = CCCCCC(=O)*; AEEA = NCCOCCOCC(=O)O; Aib = CC(C)(N)C(=O)O
# Legend:
# [1] = biological target: T1, PSMA-expressing C4-2 cells (Homo sapiens, UniProt Q04609); assay: FACS binding assay (competition with 50 nM PSM-0183); settings: FACS binding, PSMA-expressing C4-2 cells; pIC50 category; read-out: pIC50 [C4-2] CAT (converted)
# T1 construct: PSMA-expressing C4-2 cells (ATCC, Cat. No. CRL-3314) were cultured in RPMI-1640; host or cells: C4-2 cells
# Outline: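 C4-2 cells were incubated 1 h at 4 °C with 50 nM AF488-labelled peptide PSM-0183 plus increasing test compound concentrations, then washed twice in ice-cold buffer. Median fluorescence in the AF488 channel was read by flow cytometry. IC50/pIC50 was derived by 4PL fitting of MFI versus concentration.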
# [2] = biological target: T2, Fc-fusion protein of human PSMA (hPSMA-Fc) (Homo sapiens, UniProt Q04609); assay: Surface plasmon resonance assay (Biacore T200, single cycle kinetic); format: binding; settings: PSMA SPR assay, hPSMA-Fc, 25° C.; pKD category; read-out: pKD CAT (converted)
# T2 construct: purchased Acro Biosystems PSA-H5264
# Outline: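 hPSMA-Fc was captured (~1000 RU) on an Fc-binding-peptide CM5 chip, and compounds were run in single cycle kinetic mode at 25° C in HBST with 0.1% DMSO. Double-blank-corrected sensorgrams were fitted to a 1:1 Langmuir model to give KD, reported as pKD.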
# T2 sequence (Q04609 44-750 limits assumed): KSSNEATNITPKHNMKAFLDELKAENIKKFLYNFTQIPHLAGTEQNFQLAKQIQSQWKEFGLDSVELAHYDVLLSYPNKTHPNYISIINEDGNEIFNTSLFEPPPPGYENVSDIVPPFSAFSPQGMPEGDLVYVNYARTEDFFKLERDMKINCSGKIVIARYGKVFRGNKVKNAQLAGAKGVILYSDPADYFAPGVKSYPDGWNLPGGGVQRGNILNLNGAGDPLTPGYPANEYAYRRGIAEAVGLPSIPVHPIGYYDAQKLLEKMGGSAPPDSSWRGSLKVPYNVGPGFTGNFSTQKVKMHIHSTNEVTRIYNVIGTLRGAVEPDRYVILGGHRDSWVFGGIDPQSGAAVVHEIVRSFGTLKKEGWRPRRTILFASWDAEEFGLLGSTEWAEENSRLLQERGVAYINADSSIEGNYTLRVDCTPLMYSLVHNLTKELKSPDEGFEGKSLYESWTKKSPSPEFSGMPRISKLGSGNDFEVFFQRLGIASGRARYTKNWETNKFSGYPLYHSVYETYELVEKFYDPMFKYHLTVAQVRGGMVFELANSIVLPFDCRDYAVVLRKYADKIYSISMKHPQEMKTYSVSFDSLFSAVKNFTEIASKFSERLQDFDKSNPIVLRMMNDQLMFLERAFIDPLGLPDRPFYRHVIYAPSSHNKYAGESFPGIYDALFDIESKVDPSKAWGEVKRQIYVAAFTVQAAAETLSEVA
# T1 sequence (Q04609 whole entry): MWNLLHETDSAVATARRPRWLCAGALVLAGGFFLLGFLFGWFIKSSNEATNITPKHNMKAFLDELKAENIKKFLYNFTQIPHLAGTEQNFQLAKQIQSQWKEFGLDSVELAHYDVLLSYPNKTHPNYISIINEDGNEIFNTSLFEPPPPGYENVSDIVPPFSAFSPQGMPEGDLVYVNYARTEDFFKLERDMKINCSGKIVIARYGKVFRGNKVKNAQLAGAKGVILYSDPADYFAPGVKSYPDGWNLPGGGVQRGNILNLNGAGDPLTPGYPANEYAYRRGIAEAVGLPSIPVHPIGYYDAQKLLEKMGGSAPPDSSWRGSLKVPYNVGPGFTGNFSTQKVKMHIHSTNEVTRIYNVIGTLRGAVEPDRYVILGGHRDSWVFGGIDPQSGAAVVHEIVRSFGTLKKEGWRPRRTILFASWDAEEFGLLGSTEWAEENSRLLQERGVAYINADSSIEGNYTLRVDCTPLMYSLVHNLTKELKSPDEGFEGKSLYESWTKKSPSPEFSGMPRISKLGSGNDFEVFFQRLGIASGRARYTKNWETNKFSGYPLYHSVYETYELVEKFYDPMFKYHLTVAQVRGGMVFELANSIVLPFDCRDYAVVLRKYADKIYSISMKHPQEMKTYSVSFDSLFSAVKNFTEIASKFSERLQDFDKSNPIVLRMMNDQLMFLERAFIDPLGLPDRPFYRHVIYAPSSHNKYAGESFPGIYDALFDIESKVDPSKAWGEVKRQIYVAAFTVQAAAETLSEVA
structure (smiles),measurement,setting,value
"CC(=O)N[C@H](C(=O)NC(C)(C)C(=O)N[C@@H](Cc1cccc(Cl)c1)C(=O)N[C@H]1CSSC[C@@H](C(=O)N[C@H](C(=O)N[C@H](C(=O)N2CCC(CC(=O)N[C@H](CCCCNC(=O)CN3CCN(CC(=O)O)CCN(CC(=O)O)CCN(CC(=O)O)CC3)C(N)=O)CC2)[C@@H](C)O)C(C)(C)C)NC(=O)[C@H](CC(N)=O)NC(=O)C(C)(C)NC(=O)[C@H](CCCNC(N)=O)NC(=O)[C@H](CCCCN)NC1=O)[C@@H](C)O [PSM-0275, Ac-Thr-Aib-Mcf-[Cys-Lys-Cit-Aib-Asn-Cys]-Tle-Thr-Cmp-lys(DOTA)-NH2] (Ac-T[Aib][Phe(3-Cl)]CK[Cit][Aib]NC[Tle]T[X1][dK](DOTA)-NH2; disulfide 4-9)",IC50,[1],0.2 to 1.26 µM
same,Kd,[2],0.0126 to 0.126 µM
"C[C@@H](O)[C@H](NC(=O)[C@@H](NC(=O)[C@@H]1CSSC[C@H](NC(=O)[C@H](Cc2ccc(Cl)cc2)NC(=O)[C@H](CCC(=O)O)NC(=O)[C@@H](NC(=O)CC2CCN(C(=O)CN3CCN(CC(=O)O)CCN(CC(=O)O)CCN(CC(=O)O)CC3)CC2)[C@@H](C)O)C(=O)N[C@@H](CCCCN)C(=O)N[C@@H](CCCNC(=N)N)C(=O)NC(C)(C)C(=O)N[C@@H](CC(N)=O)C(=O)N1)C(C)(C)C)C(N)=O [PSM-0276, DOTA-Cmp-Thr-Glu-Pcf-[Cys-Lys-Arg-Aib-Asn-Cys]-Tle-Thr-NH2] ({DOTA}-[X1]TE[Phe(4-Cl)]CKR[Aib]NC[Tle]T-NH2; disulfide 5-10)",IC50,[1],> 3.16 µM
same,Kd,[2],> 0.501 µM
"CC(=O)N[C@H](C(=O)NC(C)(C)C(=O)N[C@@H](Cc1ccc(C#N)cc1)C(=O)N[C@H]1CSSC[C@@H](C(=O)N[C@H](C(=O)N[C@H](C(N)=O)[C@@H](C)O)C(C)(C)C)NC(=O)[C@H](CC(N)=O)NC(=O)C(C)(C)NC(=O)[C@H](CCCNC(=N)N)NC(=O)[C@H](CCCCN)NC1=O)[C@@H](C)O [PSM-0278, Ac-Thr-Aib-Pnf-[Cys-Lys-Arg-Aib-Asn-Cys]-Tle-Thr-NH2] (Ac-T[Aib][Phe(4-CN)]CKR[Aib]NC[Tle]T-NH2; disulfide 4-9)",IC50,[1],< 0.2 µM
same,Kd,[2],< 0.0126 µM
"CC(=O)N[C@H](C(=O)NC(C)(C)C(=O)N[C@@H](Cc1ccccc1)C(=O)N[C@H]1CSSC[C@@H](C(=O)N[C@H](C(=O)N[C@H](C(N)=O)[C@@H](C)O)C(C)(C)C)NC(=O)[C@H](CO)NC(=O)C(C)(C)NC(=O)[C@H](CCCNC(=N)N)NC(=O)[C@H](CCCCN)NC1=O)[C@@H](C)O [PSM-0279, Ac-Thr-Aib-Phe-[Cys-Lys-Arg-Aib-Ser-Cys]-Tle-Thr-NH2] (Ac-T[Aib]FCKR[Aib]SC[Tle]T-NH2; disulfide 4-9)",IC50,[1],< 0.2 µM
same,Kd,[2],< 0.0126 µM
"CC(=O)N[C@H](C(=O)NC(C)(C)C(=O)N[C@@H](Cc1ccccc1)C(=O)N[C@H]1CSSC[C@@H](C(=O)N[C@H](C(=O)N[C@H](C(=O)N[C@@H](CC(=O)O)C(N)=O)[C@@H](C)O)C(C)(C)C)NC(=O)[C@H](CC(N)=O)NC(=O)C(C)(C)NC(=O)[C@H](CCCNC(N)=O)NC(=O)[C@H](CCCCN)NC1=O)[C@@H](C)O [PSM-0280, Ac-Thr-Aib-Phe-[Cys-Lys-Cit-Aib-Asn-Cys]-Tle-Thr-Asp-NH2] (Ac-T[Aib]FCK[Cit][Aib]NC[Tle]TD-NH2; disulfide 4-9)",IC50,[1],< 0.2 µM
same,Kd,[2],< 0.0126 µM
"CC(=O)N[C@@H](Cc1ccc(Cl)cc1)C(=O)N[C@H]1CSSC[C@@H](C(=O)N[C@H](C(N)=O)C(C)(C)C)NC(=O)[C@H](CC(N)=O)NC(=O)C(C)(C)NC(=O)[C@H](CCCNC(=N)N)NC(=O)[C@H](CCCCN)NC1=O [PSM-0281, Ac-Pcf-[Cys-Lys-Arg-Aib-Asn-Cys]-Tle-NH2] (Ac-[Phe(4-Cl)]CKR[Aib]NC[Tle]-NH2; disulfide 2-7)",IC50,[1],> 3.16 µM
same,Kd,[2],> 0.501 µM
"CC(=O)NC(C)(C)C(=O)N[C@@H](Cc1ccc(Cl)cc1)C(=O)N[C@H]1CSSC[C@@H](C(=O)N[C@H](C(=O)N[C@H](C(N)=O)[C@@H](C)O)C(C)(C)C)NC(=O)[C@H](CC(N)=O)NC(=O)[C@H](CCCCNC(=O)CN2CCC(NC(=O)CN3CCN(CC(=O)O)CCN(CC(=O)O)CCN(CC(=O)O)CC3)CC2)NC(=O)[C@H](CCCNC(=N)N)NC(=O)[C@H](CCCCN)NC1=O [PSM-0282, Ac-Aib-Pcf-[Cys-Lys-Arg-Lys(DOTA-APAc)-Asn-Cys]-Tle-Thr-NH2] (Ac-[Aib][Phe(4-Cl)]CKRK(X7)NC[Tle]T-NH2; disulfide 3-8)",IC50,[1],< 0.2 µM
same,Kd,[2],< 0.0126 µM
"CC(=O)N[C@H](C(=O)NC(C)(C)C(=O)N[C@@H](Cc1cccc(Cl)c1)C(=O)N[C@H]1CSSC[C@@H](C(=O)N[C@H](C(=O)N[C@H](C(N)=O)[C@@H](C)O)C(C)(C)C)NC(=O)[C@H](CC(N)=O)NC(=O)[C@H](CCCCNC(=O)COCCOCCNC(=O)CN2CCN(CC(=O)O)CCN(CC(=O)O)CCN(CC(=O)O)CC2)NC(=O)[C@H](CCCNC(N)=O)NC(=O)[C@H](CCCCN)NC1=O)[C@@H](C)O [PSM-0284, Ac-Thr-Aib-Mcf-[Cys-Lys-Cit-Lys(DOTA-020c)-Asn-Cys]-Tle-Thr-NH2] (Ac-T[Aib][Phe(3-Cl)]CK[Cit]K([AEEA-DOTA])NC[Tle]T-NH2; disulfide 4-9)",IC50,[1],< 0.2 µM
same,Kd,[2],0.0126 to 0.126 µM
"CCCC[C@H](NC(=O)[C@@H]1CSSC[C@H](NC(=O)[C@H](Cc2ccccc2)NC(=O)[C@H](C)NC(=O)[C@@H](NC(C)=O)[C@@H](C)O)C(=O)N[C@@H](CCCCN)C(=O)N[C@@H](CCCNC(=N)N)C(=O)N[C@@H](C)C(=O)N2CCC[C@H]2C(=O)N1)C(=O)N[C@H](C(=O)N[C@@H](CC(=O)O)C(N)=O)[C@@H](C)O [PSM-0286, Ac-Thr-Ala-Phe-[Cys-Lys-Arg-Ala-Pro-Cys]-Nle-Thr-Asp-NH2] (Ac-TAFCKRAPC[Nle]TD-NH2; disulfide 4-9)",IC50,[1],> 3.16 µM
same,Kd,[2],> 0.501 µM
"CCCC[C@H](NC(=O)[C@@H]1CSSC[C@H](NC(=O)[C@H](Cc2ccccc2)NC(=O)[C@H](C)NC(=O)[C@@H](NC(C)=O)[C@@H](C)O)C(=O)N[C@@H](CCCCN)C(=O)N[C@@H](CCCNC(=N)N)C(=O)N[C@@H](C)C(=O)N[C@@H](CC(N)=O)C(=O)N1)C(=O)N[C@H](C(=O)N[C@@H](CC(=O)O)C(N)=O)[C@@H](C)O [PSM-0287, Ac-Thr-Ala-Phe-[Cys-Lys-Arg-Ala-Asn-Cys]-Nle-Thr-Asp-NH2]",IC50,[1],< 0.2 µM
same,Kd,[2],0.0126 to 0.126 µM
"CC(=O)N[C@H](C(=O)NC(C)(C)C(=O)N[C@@H](Cc1ccccc1)C(=O)N[C@H]1CSSC[C@@H](C(=O)N[C@H](C(=O)N[C@H](C(=O)N[C@H](CCCCNC(=O)CN2CCN(CC(=O)O)CCN(CC(=O)O)CCN(CC(=O)O)CC2)C(N)=O)[C@@H](C)O)C(C)(C)C)NC(=O)[C@H](CC(N)=O)NC(=O)C(C)(C)NC(=O)[C@H](CCCNC(=N)N)NC(=O)[C@H](CCCCN)NC1=O)[C@@H](C)O [PSM-0288, Ac-Thr-Aib-Phe-[Cys-Lys-Arg-Aib-Asn-Cys]-Tle-Thr-lys(DOTA)-NH2] (Ac-T[Aib]FCKR[Aib]NC[Tle]T[dK](DOTA)-NH2; disulfide 4-9)",IC50,[1],< 0.2 µM
same,Kd,[2],< 0.0126 µM
"CCCCCC(=O)N[C@H](C(=O)NC(C)(C)C(=O)N[C@@H](Cc1ccccc1)C(=O)N[C@H]1CSSC[C@@H](C(=O)N[C@H](C(=O)N[C@H](C(=O)NCCCOCCOCCOCCCNC(=O)CCC(=O)N[C@H](CCCCNC(=O)CN2CCN(CC(=O)O)CCN(CC(=O)O)CCN(CC(=O)O)CC2)C(N)=O)[C@@H](C)O)C(C)(C)C)NC(=O)[C@H](CC(N)=O)NC(=O)C(C)(C)NC(=O)[C@H](CCC(N)=O)NC(=O)[C@H](CCCCN)NC1=O)[C@@H](C)O [PSM-0289, Hex-Thr-Aib-Pho-[Cys-Lys-Gln-Aib-Asn-Cys]-Tle-Thr-Ttds-lys(DOTA)-NH2] (Hexanoyl-T[Aib]FCKQ[Aib]NC[Tle]T-{TtdsdLys(DOTA)NH2}; disulfide 4-9)",IC50,[1],0.2 to 1.26 µM
same,Kd,[2],0.0126 to 0.126 µM
"C[C@@H](O)[C@H](NC(=O)[C@@H](NC(=O)[C@@H]1CSSC[C@H](NC(=O)[C@H](Cc2ccc(Cl)cc2)NC(=O)C(C)(C)NC(=O)CN2CCN(CC(=O)O)CCN(CC(=O)O)CCN(CC(=O)O)CC2)C(=O)N[C@@H](CCCCN)C(=O)N[C@@H](CCCNC(=N)N)C(=O)NC(C)(C)C(=O)N[C@@H](CC(N)=O)C(=O)N1)C(C)(C)C)C(N)=O [PSM-0290, DOTA-Aib-Pcf-[Cys-Lys-Arg-Aib-Asn-Cys]-Tle-Thr-NH2] ({DOTA}-[Aib][Phe(4-Cl)]CKR[Aib]NC[Tle]T-NH2; disulfide 3-8)",IC50,[1],> 3.16 µM
same,Kd,[2],> 0.501 µM
"CC(=O)N[C@H](C(=O)NC(C)(C)C(=O)N[C@@H](Cc1ccccc1)C(=O)N[C@H]1CSSC[C@@H](C(=O)N[C@H](C(=O)N[C@H](C(=O)N[C@@H](CC(=O)O)C(N)=O)[C@@H](C)O)C(C)(C)C)NC(=O)[C@H](CC(N)=O)NC(=O)[C@H](C)NC(=O)[C@H](CCCNC(=N)N)NC(=O)[C@H](CCC(=O)O)NC1=O)[C@@H](C)O [PSM-0291, Ac-Thr-Aib-Phe-[Cys-Glu-Arg-Ala-Asn-Cys]-Tle-Thr-Asp-NH2] (Ac-T[Aib]FCERANC[Tle]TD-NH2; disulfide 4-9)",IC50,[1],1.26 to 3.16 µM
same,Kd,[2],> 0.501 µM

# Source: patent US20260083865A1, “PROSTATE SPECIFIC MEMBRANE ANTIGEN (PSMA) LIGANDS AND USE THEREOF” (priority 2022, published 2026)
